Measured values: patent publication US20230167127A1, “COMPOUNDS AND THEIR USE IN THE TREATMENT OF BACTERIAL INFECTION” (Hoffmann-La Roche Inc., priority 2020, published 2023)
Like-named read-outs stand apart in the source and are kept apart here.

Test system: Escherichia coli ATCC 25922
Experiment: 50% growth inhibitory concentration (IC50) determination, Iso-Sensitest broth dilution
Type: cell-based
Settings: strain Escherichia coli ATCC 25922, 10-point broth dilution, optical density at 600 nm over 16 h, read-out: Escherichia coli growth inhibition IC50
Protocol: 50% Growth Inhibitory Concentration (IC50) Determination
The in vitro antimicrobial activity of the compounds was determined according to the following procedure:
The assay used a 10-point Iso-Sensitest broth dilution method to measure quantitatively the in vitro
ATCC 25922, Acinetobacter baumannii ATCC 17961, Klebsiella pneumoniae ATCC 43816 and Staphylococcus aureus ATCC 29213.
Stock compounds in DMSO were serially twofold diluted (e.g. range from 50 to 0.097 μM final concentration) in 384 wells microtiter plates and inoculated with 50 μL of the bacterial suspension in Iso-
ell of 50 μL/well. Microtiter plates were incubated at 35±2° C.
Bacterial cell growth was determined with the measurement of optical density at λ=600 nm each 20 minutes over a time course of 16 h.
Growth inhibition was calculated during the logarithmic growth of the bacterial cells with
Table 1 provides the 50% growth inhibitory concentrations (IC50) in micromoles per liter of the compounds of present invention obtained against the strain Escherichia coli ATCC 25922.

[1] = Escherichia coli, ATCC25922, 16 h

IC50 [1]	IC50	Compound
202 nM		O=C1COc2ncc(N3CC(CCNCC4Cc5cc(OCc6cc[nH]n6)cc(F)c5C4)OC3=O)nc2N1 (stereo not shown) [Example 320, 6-[5-[2-[[4-Fluoro-6-(1H-pyrazol-3-ylmethoxy)-2,3-dihydro-1H-inden-2-yl]methylamino]ethyl]-2-oxo-1,3-oxazolidin-3-yl]-4H-pyrazino[2,3-b][1,4]oxazin-3-one; formic acid]
328 nM		COc1cnc(Cl)c2c1CC(CNCCC1CN(c3ccc4c(n3)NC(=O)CO4)C(=O)O1)C2 (stereo not shown) [Example 57, 6-[5-[2-[(1-chloro-4-methoxy-6,7-dihydro-5H-cyclopenta[c]pyridin-6-yl)methylamino]ethyl]-2-oxo-1,3-oxazolidin-3-yl]-4H-pyrido[3,2-b][1,4]oxazin-3-one]
356 nM		N#Cc1cccc2c1CC(CNCCC1CN(c3cnc4c(c3)NC(=O)CO4)C(=O)O1)C2 (stereo not shown) [Example 46, 2-[[2-[2-oxo-3-(2-oxo-1H-pyrido[2,3-b][1,4]oxazin-7-yl)-1,3-oxazolidin-5-yl]ethylamino]methyl]-2,3-dihydro-1H-indene-4-carbonitrile]
	957 nM	Cc1ncc(F)c2c1CC(NCC(O)CC1CN(c3cnc4c(n3)NC(=O)CO4)C(=O)O1)C2 (single isomer, unassigned; isomer d) [Example 316, 6-[2-Oxo-5-[3-[(4-fluoro-1-methyl-6,7-dihydro-5H-cyclopenta[c]pyridin-6-yl)amino]-2-hydroxypropyl]-1,3-oxazolidin-3-yl]-4H-pyrazino[2,3-b][1,4]oxazin-3-one; formic acid, Isomer D]
281 nM		CN(CCOc1cc(F)c2c(c1)CC(CNCCC1CN(c3cnc4c(n3)NC(=O)CO4)C(=O)O1)C2)S(C)(=O)=O (stereo not shown) [Example 325, N-[2-[[7-fluoro-2-[[2-[2-oxo-3-(3-oxo-4H-pyrazino[2,3-b][1,4]oxazin-6-yl)-1,3-oxazolidin-5-yl]ethylamino]methyl]-2,3-dihydro-1H-inden-5-yl]oxy]ethyl]-N-methylmethanesulfonamide]
< 97.7 nM		NC1c2c(Cl)cccc2CC1CNCCC1CN(c2ccc3c(n2)NC(=O)CO3)C(=O)O1 (racemic) [Example 168, 6-[2-oxo-5-[2-[[rac-1,2-trans-1-amino-7-chloro-2,3-dihydro-1H-inden-2-yl]methylamino]ethyl]-1,3-oxazolidin-3-yl]-4H-pyrido[3,2-b][1,4]oxazin-3-one; formic acid]
453 nM		O=C1COc2ccc(N3CC(CNCC4Cc5cccc(Cl)c5C4)OC3=O)nc2N1 (stereo not shown) [Example 21, 6-[5-[[(4-chloro-2,3-dihydro-1H-inden-2-yl)methylamino]methyl]-2-oxo-1,3-oxazolidin-3-yl]-4H-pyrido[3,2-b][1,4]oxazin-3-one; formic acid]
< 97.7 nM		Cc1nonc1COc1cc(C#N)c2c(c1)CC(CNCCC1CN(c3cnc4c(n3)NC(=O)CO4)C(=O)O1)C2 (stereo not shown) [Example 392, 6-[(4-methyl-1,2,5-oxadiazol-3-yl)methoxy]-2-[[2-[2-oxo-3-(3-oxo-4H-pyrazino[2,3-b][1,4]oxazin-6-yl)-1,3-oxazolidin-5-yl]ethylamino]methyl]-2,3-dihydro-1H-indene-4-carbonitrile]
< 97.7 nM		O=C1COc2ncc(N3CC(C4CCN(C5Cc6cccc(F)c6C5)CC4)OC3=O)nc2N1 (stereo not shown) [Example 350, 6-[5-[1-(4-fluoro-2,3-dihydro-1H-inden-2-yl)piperidin-4-yl]-2-oxo-1,3-oxazolidin-3-yl]-4H-pyrazino[2,3-b][1,4]oxazin-3-one]
174 nM		N#Cc1cccc2c1CC(CNCCC1CN(c3ccc4c(n3)NC(=O)CO4)C(=O)O1)C2N (racemic) [Example 228, rac-1,2-trans-1-Amino-2-[[2-[2-oxo-3-(3-oxo-4H-pyrido[3,2-b][1,4]oxazin-6-yl)-1,3-oxazolidin-5-yl]ethylamino]methyl]-2,3-dihydro-1H-indene-4-carbonitrile]
778 nM		Cc1ncc(F)c2c1CC(CNCCC1(CN)CN(c3ccc4c(n3)NC(=O)CO4)C(=O)O1)C2 (stereo not shown) [Example 242, 6-[5-(Aminomethyl)-5-[2-[(4-fluoro-1-methyl-6,7-dihydro-5H-cyclopenta[c]pyridin-6-yl)methylamino]ethyl]-2-oxo-1,3-oxazolidin-3-yl]-4H-pyrido[3,2-b][1,4]oxazin-3-one]
180 nM		CC(C)(N)COc1cc(F)c2c(c1)CC(CNCC[C@@H]1CN(c3cnc4c(n3)NC(=O)CO4)C(=O)O1)C2 (stereo partly drawn) [Example 342, 6-[(5R)-5-[2-[[6-(2-amino-2-methylpropoxy)-4-fluoro-2,3-dihydro-1H-inden-2-yl]methylamino]ethyl]-2-oxo-1,3-oxazolidin-3-yl]-4H-pyrazino[2,3-b][1,4]oxazin-3-one; formic acid]
< 97.7 nM		COc1cc2c(c(Cl)n1)CC(CNCCC1CN(c3cnc4c(n3)NC(=O)CO4)C(=O)O1)C2 (stereo not shown) [Example 50, 6-[5-[2-[(1-chloro-3-methoxy-6,7-dihydro-5H-cyclopenta[c]pyridin-6-yl)methylamino]ethyl]-2-oxo-1,3-oxazolidin-3-yl]-4H-pyrazino[2,3-b][1,4]oxazin-3-one]
118 nM		CNC(=O)COc1cc(F)c2c(c1)CC(CNCCC1CN(c3ccc4c(n3)NC(=O)CS4)C(=O)O1)C2 (stereo not shown) [Example 74, 2-[[7-fluoro-2-[[2-[2-oxo-3-(3-oxo-4H-pyrido[3,2-b][1,4]thiazin-6-yl)-1,3-oxazolidin-5-yl]ethylamino]methyl]-2,3-dihydro-1H-inden-5-yl]oxy]-N-methylacetamide: formic acid]
155 nM		Cc1ncc(F)c2c1CC(NCCCC1CN(c3ccc4c(n3)NC(=O)CO4)C(=O)O1)C2 (stereo not shown) [Example 78, 6-[5-[3-[(4-fluoro-1-methyl-6,7-dihydro-5H-cyclopenta[c]pyridin-6-yl)amino]propyl]-2-oxo-1,3-oxazolidin-3-yl]-4H-pyrido[3,2-b][1,4]oxazin-3-one]
< 97.7 nM		N#Cc1cccc2c1CC(CNCCC1CN(c3cnc4c(n3)NC(=O)CO4)C(=O)O1)C2 (stereo not shown) [Example 35, 2-[[2-[2-oxo-3-(3-oxo-4H-pyrazino[2,3-b][1,4]oxazin-6-yl)-1,3-oxazolidin-5-yl]ethylamino]methyl]-2,3-dihydro-1H-indene-4-carbonitrile]
249 nM		Cc1ncc(F)c2c1CC(CNCCc1nn(-c3ccc4c(c3)NC(=O)CO4)c(=O)o1)C2 (stereo not shown) [Example 67, 6-[5-[2-[(4-fluoro-1-methyl-6,7-dihydro-5H-cyclopenta[c]pyridin-6-yl)methylamino]ethyl]-2-oxo-1,3,4-oxadiazol-3-yl]-4H-1,4-benzoxazin-3-one]
< 97.7 nM		N#Cc1cccc2c1CC(CN1CCC3(CC1)CN(c1cnc4c(n1)NC(=O)CO4)C(=O)O3)C2 (stereo not shown) [Example 261, 2-[[2-Oxo-3-(3-oxo-4H-pyrazino[2,3-b][1,4]oxazin-6-yl)-1-oxa-3,8-diazaspiro[4.5]decan-8-yl]methyl]-2,3-dihydro-1H-indene-4-carbonitrile; formic acid]
175 nM		O=C1COc2ncc(N3CC(CCNCC4Cc5cc(OCCn6cnnn6)cc(F)c5C4)OC3=O)nc2N1 (stereo not shown) [Example 347, 6-[5-[2-[[4-fluoro-6-[2-(tetrazol-1-yl)ethoxy]-2,3-dihydro-1H-inden-2-yl]methylamino]ethyl]-2-oxo-1,3-oxazolidin-3-yl]-4H-pyrazino[2,3-b][1,4]oxazin-3-one; formic acid]
< 97.7 nM		NC1c2cccc(Cl)c2CC1CNCCc1cn(-c2ccc3c(n2)NC(=O)CO3)c(=O)o1 (racemic) [Example 170, 6-[2-oxo-5-[2-[[rac-1,2-trans-1-amino-4-chloro-2,3-dihydro-1H-inden-2-yl]methylamino]ethyl]-1,3-oxazol-3-yl]-4H-pyrido[3,2-b][1,4]oxazin-3-one]
	904 nM	N#Cc1cccc2c1CC(CNCCC1OC(=O)N(c3ccc4c(n3)NC(=O)CO4)C1CN)C2 (racemic) [Example 149, 2-[[2-[rac-4,5-trans-4-(aminomethyl)-2-oxo-3-(3-oxo-4H-pyrido[3,2-b][1,4]oxazin-6-yl)-1,3-oxazolidin-5-yl]ethylamino]methyl]-2,3-dihydro-1H-indene-4-carbonitrile; formic acid]
314 nM		NC1(CCNCC2Cc3cccc(Cl)c3C2)CC(=O)N(c2ccc3c(n2)NC(=O)CO3)C1 (stereo not shown) [Example 140, 6-[4-amino-4-[2-[(4-chloro-2,3-dihydro-1H-inden-2-yl)methylamino]ethyl]-2-oxopyrrolidin-1-yl]-4H-pyrido[3,2-b][1,4]oxazin-3-one]
844 nM		Cc1ncc(F)c2c1CC(N)(CCNCC1CN(c3ccc4c(n3)NC(=O)CO4)C(=O)O1)C2 (stereo not shown) [Example 280, 6-[5-[[2-(6-amino-4-fluoro-1-methyl-5,7-dihydrocyclopenta[c]pyridin-6-yl)ethylamino]methyl]-2-oxo-1,3-oxazolidin-3-yl]-4H-pyrido[3,2-b][1,4]oxazin-3-one]
227 nM		Cc1nc2c(c3c1CC(CNCCC1CN(c4cnc5c(n4)NC(=O)CO5)C(=O)O1)C3)CCN2C (stereo not shown) [Example 424, 6-[5-[2-[(5,8-Dimethyl-5,7-diazatricyclo[7.3.0.0^2,6]dodeca-1,6,8-trien-11-yl)methylamino]ethyl]-2-oxo-1,3-oxazolidin-3-yl]-4H-pyrazino[2,3-b][1,4]oxazin-3-one]
	176 nM	O=C1COc2ccc(N3CC(CCNCC4Cc5c(Cl)cccc5C4O)OC3=O)nc2N1 (racemic) [Example 231, 6-[2-Oxo-5-[2-[[rac-1,2-cis-4-chloro-1-hydroxy-2,3-dihydro-1H-inden-2-yl]methylamino]ethyl]-1,3-oxazolidin-3-yl]-4H-pyrido[3,2-b][1,4]oxazin-3-one]
